Results reported in patent US20250228858A1, “ANTI-CANCER COMBINATION THERAPY” (Boehringer Ingelheim International GmbH, priority 2023, published 2025).
Values joined by “and” are separate entries in the source; they are usually repeats but may differ in a detail not shown here. Equal values may be shown once.

Legend:
[1] = system: HER2-overexpressing human breast cancer cell line BT-474; test: BT-474 orthotopic xenograft, zongertinib with T-DM1; type: in vivo, NMRI-Foxn1^nu mice; conditions: for stable disease / Regressions >30% / TGI: day 42; for stable disease: number of tumors; for stable disease / mice that lost some weight and had to be euthanized: zongertinib 10 mg/kg qdx42, T-DM1 6 mg/kg q21dx2, monotherapies; for Regressions >30%: tumors regressed/total (partial response); for Regressions >30% / TGI: zongertinib 10 mg/kg qdx42 p.o., T-DM1 6 mg/kg q21dx2 i.v., alone or combined
Protocol: The study is performed in human breast cancer cell line BT-474 grown as orthotopic xenografts in NMRI-Foxn1^nu mice. Day 1 was the first day, day 42 the last day of treatment and final day of analysis.
BT-474 is obtained and cultured as described in Example 10 (see paragraph 10.1.2).
Tumors are established and randomized as described in Example 10 (see paragraph 10.14), except that mice are randomly distributed between the treatment and the vehicle control group (22 days after cell injection) when tumors are well established and have reached volumes of 84 to 310 mm^3.
Tumor volumes and side effects are monitored as described in Example 1 (see paragraph 1.1.6), except that control animals are sacrificed when the median tumor volume of the group reaches a size of approximately 710 mm^3.
The statistical evaluation of the tumor volume and the body weight is conducted on day 42 (last day of the study). Apart from this, statistical analysis was performed as described in Example 1 (see paragraph 1.1.7), with no evaluation of tumor growth after stop of treatment.

[2] = system: HER2 Exon20^YVMA-mutant human non-small cell lung cancer (NSCLC) cell line PC-9_YVMA-5; test: PC-9_YVMA-5 subcutaneous xenograft, zongertinib with T-DM1; type: in vivo, NMRI-Foxn1^nu mice; conditions: alone or combined; for effect on tumor growth (median tumor volumes over time): T-DM1 5 mg/kg once weekly (q7d), zongertinib 5 mg/kg/day; for TGI: day 19; for TGI / tumors regressed completely / Regressions >30%: zongertinib 5 mg/kg bid, T-DM1 5 mg/kg q7d; for tumors regressed completely: number of tumors, 8 per group; for Regressions >30%: tumors regressed/total (Table 6, FIG. 6 waterfall day 24)
Protocol: The study is performed in human non-small cell lung cancer (NSCLC) cell line PC-9_YVMA-5 (PC-9 YVMA in short) grown as subcutaneous xenografts in NMRI-Foxn1^nu mice. Day 1 was the first day, day 21 the last day of treatment and day 24 the final day of analysis.
PC-9 is a non-small cell lung cancer cell line that can be obtained from the European Collection of Authenticated Cell Cultures (ECACC #90071810) and expresses an EGFR DEL19 mutation. To generate the PC-9_YVMA-5 clone driven by HER2 YVMA, parental PC-9 cells are ectopically transduced to express the HER2 YVMA isoform and the EGFR alleles (mutant and wild type) are deleted using CRISPR technology. Cells are cultured in T175 tissue culture flasks at 37° C. and 5% CO2. The medium used is RPMI 1640 supplemented with 10% FCS (Thermo Scientific #SH 30071.03), 0.5 μg/ml Puromycin (Gibco #A1113803) and 0.6 mg/ml Geneticin (Gibco #10131035). Cultures are split twice weekly with a ratio of 1:5-1:6.
To establish subcutaneous tumors, PC-9_YVMA-5 cells are harvested by centrifugation, washed and resuspended in PBS+5% FCS at 5×10^7 cells/ml. 100 μl cell suspension containing 5×10^6 cells is injected subcutaneously into the right flank of the mice (1 site per mouse). Mice are randomly distributed between the treatment and the vehicle control group (12 days after cell injection) when tumors are well established and have reached volumes of 90 to 149 mm^3.
Mice in the control group are treated with vehicle, i.e.: • (i) 0.5% Natrosol, administered twice daily for the duration of the treatment intragastrally by gavage needle with a volume of 10 ml/kg body weight; and • (ii) saline (0.9%), administered once weekly intravenously into the tail vein with a volume of 5 ml/kg.
Tumor volumes and side effects are monitored as described in Example 1 (see paragraph 1.1.6), except that control animals are sacrificed when the median tumor volume of the group reaches a size of approximately 370 mm^3.
The statistical evaluation of the tumor volume and the body weight is conducted on day 19 (last day of the controls). Apart from this, statistical analysis was performed as described in Example 1 (see paragraph 1.1.7), with no evaluation of tumor growth after stop of treatment.

Molecule | stable disease [1] | Regressions >30% [1] | TGI [1] [%] | mice that lost some weight and had to be euthanized [1] | effect on tumor growth (median tumor volumes over time) [2] | TGI [2] [%] | tumors regressed completely [2] | Regressions >30% [2] | Regressions >30% ([1]; listed as zongertinib) | Regressions >30% ([2]; listed as zongertinib)
trastuzumab emtansine [T-DM1, reference compound] | 3 | 1 and 1/5 | 85 | 2 out of 8 | abolished tumor growth | 112 | none | 4 and 4/8 | – | –
C=CC(=O)NC1CCN(c2ncc3ncnc(Nc4ccc(Oc5ccc6c(c5)ncn6C)c(C)c4)c3n2)CC1 [Zongertinib, N-{1-[8-({3-methyl-4-[(1-methyl-1H-1,3-benzodiazol-5-yl)oxy]phenyl}amino)-[1,3]diazino [5,4-d]pyrimidin-2-yl]piperidin-4-yl}prop-2-enamide] | no stable disease | 0/7 | 86 | 1 out of 8 | abolished tumor growth | 110 | none | 4/8 | no partial responses | 4
